# Data reported in publication PMC9403976, “Elucidating the path to Plasmodium prolyl-tRNA synthetase inhibitors that overcome halofuginone resistance” (Nature Communications, 2022).
# Where “and” joins values, the source holds several entries; their conditions need not be identical. Identical values can stand only once. Like-named read-outs stand apart in the source and are kept apart here.
# How the values were obtained:
# HT-PfcProRS [1] = target: T1, HT-PfcProRS (Plasmodium falciparum, UniProt Q8I5R7)
# Method: (§1) A Multidrop Combi Reagent Dispenser (Thermo Fisher Scientific) was used to dispense 20 μL of 2× protein solution into each well. […] Plates were mixed on an Ika MTS 2/4 Digital Microtiter Shaker at 750 rpm for 2 min, centrifuged at 1000 × g at 25 °C for 1 min, and allowed to equilibrate for 2 h at room temperature before TR-FRET measurements were taken.
# (§2) PRISM (V. 8.4.3–9.1.0, GraphPad) was used to perform non-linear regression analysis (log(inhibitor) vs. response–Variable slope (four parameters)), plot dose-response curves, and calculate IC50 values. The Cheng–Prusoff equation was used to convert IC50 to KD values (Eq. (4)):4 KD=IC50/1+[MAT379]/KD,MAT379
# HT-HsProRS [2] = target: T2, HT-HsProRS (Homo sapiens, UniProt P07814); details: replicates 1-4
# T2 sequence (P07814 996-1512): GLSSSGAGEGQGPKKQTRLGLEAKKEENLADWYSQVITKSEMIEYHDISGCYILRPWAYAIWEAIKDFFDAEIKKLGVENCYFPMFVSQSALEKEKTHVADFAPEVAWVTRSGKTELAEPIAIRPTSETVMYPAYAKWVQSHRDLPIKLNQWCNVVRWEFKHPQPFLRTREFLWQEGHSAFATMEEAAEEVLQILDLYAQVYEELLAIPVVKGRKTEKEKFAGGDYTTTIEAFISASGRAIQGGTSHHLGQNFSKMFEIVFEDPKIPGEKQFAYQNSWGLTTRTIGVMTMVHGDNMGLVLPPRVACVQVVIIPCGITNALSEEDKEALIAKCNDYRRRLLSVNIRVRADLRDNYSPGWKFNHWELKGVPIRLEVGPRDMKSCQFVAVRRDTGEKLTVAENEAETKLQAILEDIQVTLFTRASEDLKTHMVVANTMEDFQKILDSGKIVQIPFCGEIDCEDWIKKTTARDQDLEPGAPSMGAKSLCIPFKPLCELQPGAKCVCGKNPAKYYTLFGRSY
# Method: as §1, §2
# HsProRS = HsProRS (Homo sapiens, UniProt P07814); details: ref Heacock et al.; cited from earlier work
# HT-PfcProRS [3] = target: T1, HT-PfcProRS; assay: biochemical
# Method: as §1, §2
# HT-HsProRS [4] = target: T2, HT-HsProRS; assay: biochemical
# Method: as §1, §2
# T1 sequence (Q8I5R7 249-746): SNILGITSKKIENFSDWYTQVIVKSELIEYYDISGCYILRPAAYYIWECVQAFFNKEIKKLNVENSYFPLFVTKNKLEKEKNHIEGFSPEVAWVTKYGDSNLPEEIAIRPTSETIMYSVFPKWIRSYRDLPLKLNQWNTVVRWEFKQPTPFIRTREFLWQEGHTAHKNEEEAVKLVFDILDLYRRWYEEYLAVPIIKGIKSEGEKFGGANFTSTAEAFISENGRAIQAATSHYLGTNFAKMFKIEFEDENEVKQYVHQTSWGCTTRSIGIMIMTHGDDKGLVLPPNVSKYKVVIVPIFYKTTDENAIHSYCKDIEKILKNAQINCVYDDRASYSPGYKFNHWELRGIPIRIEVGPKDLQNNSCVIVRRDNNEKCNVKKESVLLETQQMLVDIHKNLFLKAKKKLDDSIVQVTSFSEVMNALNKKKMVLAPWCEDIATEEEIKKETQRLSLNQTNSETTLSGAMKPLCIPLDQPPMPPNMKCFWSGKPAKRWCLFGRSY
structure (smiles),measurement,setting,value
O=C(O)[C@@H]1CCCN1 [proline],fold lower affinity for PfcProRS than MAT379,HT-PfcProRS [1],"~ 4,500 fold"
same,Proline - […] HT-HsProRS - 1000nM MAT379,HT-HsProRS [2]; Log[Substrate] (M) -1.000,5.08E-02 and 1.93E-02 and 4.05E-02 and 1.78E-02
same,Proline - […] HT-HsProRS - 1000nM MAT379,HT-HsProRS [2]; Log[Substrate] (M) -1.301,6.44E-02 and 4.43E-02 and 5.23E-02 and 4.24E-02
same,Proline - […] HT-HsProRS - 1000nM MAT379,HT-HsProRS [2]; Log[Substrate] (M) -1.602,7.04E-02 and 4.04E-02 and 8.19E-02 and 3.22E-02
same,Proline - […] HT-HsProRS - 1000nM MAT379,HT-HsProRS [2]; Log[Substrate] (M) -1.903,1.06E-01 and 8.64E-02 and 1.07E-01 and 6.69E-02
same,Proline - […] HT-HsProRS - 1000nM MAT379,HT-HsProRS [2]; Log[Substrate] (M) -2.204,7.48E-02 and 1.05E-01 and 9.62E-02 and 1.28E-01
same,Proline - […] HT-HsProRS - 1000nM MAT379,HT-HsProRS [2]; Log[Substrate] (M) -2.505,7.61E-02 and 5.21E-02 and 2.93E-02 and 5.48E-02
same,Proline - […] HT-HsProRS - 1000nM MAT379,HT-HsProRS [2]; Log[Substrate] (M) -2.806,2.57E-02 and 8.53E-02 and 3.59E-02 and 4.74E-02
same,Proline - […] HT-HsProRS - 1000nM MAT379,HT-HsProRS [2]; Log[Substrate] (M) -3.107,9.60E-02 and 9.41E-02 and 9.82E-02 and 9.09E-02
same,Proline - […] HT-HsProRS - 1000nM MAT379,HT-HsProRS [2]; Log[Substrate] (M) -3.408,8.87E-02 and 1.50E-01 and 1.08E-01 and 8.19E-02
same,Proline - […] HT-HsProRS - 1000nM MAT379,HT-HsProRS [2]; Log[Substrate] (M) -3.709,1.42E-01 and 1.36E-01 and 1.15E-01 and 1.26E-01
same,Proline - […] HT-HsProRS - 1000nM MAT379,HT-HsProRS [2]; Log[Substrate] (M) -4.010,2.43E-01 and 1.82E-01 and 1.50E-01 and 1.67E-01
same,Proline - […] HT-HsProRS - 1000nM MAT379,HT-HsProRS [2]; Log[Substrate] (M) -4.311,2.57E-01 and 2.23E-01 and 2.59E-01 and 1.99E-01
same,Proline - […] HT-HsProRS - 1000nM MAT379,HT-HsProRS [2]; Log[Substrate] (M) -4.612,2.84E-01 and 3.36E-01 and 2.90E-01 and 3.09E-01
same,Proline - […] HT-HsProRS - 1000nM MAT379,HT-HsProRS [2]; Log[Substrate] (M) -4.913,3.43E-01 and 3.30E-01 and 3.37E-01 and 3.11E-01
same,Proline - […] HT-HsProRS - 1000nM MAT379,HT-HsProRS [2]; Log[Substrate] (M) -5.214,3.51E-01 and 3.56E-01 and 3.15E-01 and 3.55E-01
same,Proline - […] HT-HsProRS - 1000nM MAT379,HT-HsProRS [2]; Log[Substrate] (M) -5.515,4.26E-01 and 4.08E-01 and 4.22E-01 and 4.16E-01
same,Proline - […] HT-HsProRS - 1000nM MAT379,HT-HsProRS [2]; Log[Substrate] (M) -5.816,4.12E-01 and 3.85E-01 and 3.49E-01 and 3.26E-01
same,Proline - […] HT-HsProRS - 1000nM MAT379,HT-HsProRS [2]; Log[Substrate] (M) -6.118,4.73E-01 and 4.43E-01 and 3.95E-01 and 3.89E-01
same,Km,HsProRS,180 µM
same,Kd,HT-PfcProRS [3],457 µM
same,Kd,"HT-HsProRS [4]; HsProRS (KD [nM]) mean, substrates, substrate KD, (-)",30600 nM
same,Kd,"HT-HsProRS [4]; KD of substrate, […] HT-HsProRS, 1000 nM MAT379",67100 nM
